Experimental data published in patent US20210087593A1, “N-[…] ALKALOID COMPOUNDS” (Willow BioSciences Inc., priority 2017, published 2021).

Experiments:
EsNMT = experiment: N-alkylation substrate screen using EsNMT (LC-MS); assay type: biochemical, Ephedra sinica; design: key to N-alkylation of substrate alkaloid compounds, Enzyme EsNMT: −=no detectable quantities of product N-alkylated compound; Trace, +, ++, +++=increasing relative levels of product N-alkylated compound; Trace, +, ++, +++=increasing relative levels of product N-alkylated compound; Trace, +, ++, +++=increasing relative levels of product N-alkylated compound; Trace, +, ++, +++=increasing relative levels of product N-alkylated compound; settings: for N-alkylation of substrate alkaloid compounds, Enzyme EsNMT: 25 μg protein, 1 mM substrate, 1 mM SAM, 60 mM HEPES pH 8, 16 hours at 37° C., relative level of N-alkylated product by LC-MS; for N-alkylated alkaloid product detected after incubation with EsNMT (SEQ. ID NO: 2): incubated in accordance with Example 1, LC-MS
Method: The EsNMT coding sequence was amplified from Ephedra sinica cDNA using gene-specific primers containing restriction sites with Q5 HiFi DNA polymerase (NEB). Restriction digests and ligations (NEB) were carried out to generate a pQE plasmid (Qiagen) for heterologous expression of HIS6-tagged recombinant EsNMT. Protein overexpression was carried out at 18° C. in Escherichia coli SG13009 (Qiagen) grown in lysogeny broth (LB) to which 0.5 mM isopropyl β-D-1-thiogalactopyranoside (IPTG) was added.
(§1) Total soluble protein was extracted from each culture and the recombinant NMTs were purified using TALON cobalt affinity resin (Clontech) followed by desalting and concentration with Amicon Ultra-30 centrifugal filters (EMD Millipore). Protein concentration was determined using the Bradford method, and purity was assessed by SDS-PAGE followed by Coomassie staining.
(§2) Forty-four nitrogenous molecules were screened as potential substrates for EsNMT using a standardized assay (25 μg protein, 1 mM substrate, 1 mM SAM, 60 mM HEPES pH 8, 16 hours at 37° C.). In addition, a representative subset was screened as potential substrates for GfCNMT, GfTNMT and PsRNMT under identical conditions. For each substrate and enzyme combination, negative control assays were carried out using protein heated to 100° C. (boiled) for 20 minutes. Assays were quenched with 9 volumes of methanol, centrifuged to pellet insoluble debris and the supernatants were stored at −20° C. prior to analysis.
(§3) Assay supernatants were analyzed by liquid chromatography-mass spectrometry (LC-MS). LC-MS analysis was performed using a 1200 HPLC coupled with a 6410 triple-quadrupole MS (Agilent). Samples (2 μl) were injected onto a Luna […] Phenyl-Hexyl 100 Å HPLC column and analytes were eluted in a gradient of solvent A (0.1% Formic acid, 5% v/v methanol in water) and solvent B (0.1% Formic acid in methanol) at a flow rate of 300 μl per minute. The gradient began at 0% B, reached 35% B by 12 minutes, then increased to 85% B at 14 min and remained at that level until 18 minutes. Subsequently, the mixture returned to 0% B over a period of 3 minutes before a final 6 minute re-equilibration period. Analytes were applied to the mass analyzer using an electrospray ionization probe operating in positive mode with the following condition: capillary voltage, 4000V; fragmentor voltage, 100V, source temperature, 350° C.; nebulizer pressure, 50 PSI; gas flow 10 L/min. Ions were detected in full scan mode where quadrupoles 1 and 2 were set to RF only, whereas the third quadrupole scanned from 100-500 m/z over 525 milliseconds. Substrate acceptance by the enzymes was determined according to the formation of a peak with a 14-m/z increase in mass, corresponding to methylated substrate and a decrease in the substrate peak area, relative to the appropriate boiled control assay.
(§4) Each of the alkaloid substrates shown in Table 1 were incubated with the following N-alkyltransferases: GfCNMT (SEQ. ID NO: 3), gfTNMT (SEQ. ID NO: 4) and Ps RNMT ([…]) and EsNMT (SEQ. ID NO: 2), as described in Example 1. The presence of N-alkylated alkaloid product was detected as described in Examples 1-20. Legend: ND=Not Determined; −=no detectable quantities of product N-alkylated compound; and Trace, +, ++, +++=increasing relative levels of product N-alkylated compound.

GfTNMT = experiment: N-alkylation substrate screen using GfTNMT (LC-MS); assay type: biochemical, Glaucium flavum; design: key: −=no detectable quantities of product N-alkylated compound; Trace, +, ++, +++=increasing relative levels of product N-alkylated compound; Trace, +, ++, +++=increasing relative levels of product N-alkylated compound; Trace, +, ++, +++=increasing relative levels of product N-alkylated compound; Trace, +, ++, +++=increasing relative levels of product N-alkylated compound; settings: 25 μg protein, 1 mM substrate, 1 mM SAM, 60 mM HEPES pH 8, 16 hours at 37° C.; relative level of N-alkylated product by LC-MS
Method: (§5) The GfCNMT, GfTNMT and PsRNMT coding sequences were amplified from Glaucium flavum (GfCNMT and GfTNMT) or Papaver somniferum (PsRNMT) cDNA using gene-specific primers containing attB recombination sites with Q5 HiFi DNA polymerase (NEB). Recombination reactions were carried out using BP and LR Clonase II (Thermo Scientific) to generate individual pDONR221 entry plasmids and, subsequently, individual pHGWA plasmids for heterologous expression of polyhistidine (HIS6)-tagged recombinant GfCNMT, GfTNMT and PsRNMT. Protein overexpression was carried out at 18° C. using E. coli ArcticExpress (Agilent) grown in Studier's autoinduction media.
as §1, §2, §3, §4

PsRNMT = experiment: N-alkylation substrate screen using PsRNMT (LC-MS); assay type: biochemical, Papaver somniferum; design: key: −=no detectable quantities of product N-alkylated compound; Trace, +, ++, +++=increasing relative levels of product N-alkylated compound; Trace, +, ++, +++=increasing relative levels of product N-alkylated compound; Trace, +, ++, +++=increasing relative levels of product N-alkylated compound; Trace, +, ++, +++=increasing relative levels of product N-alkylated compound; settings: 25 μg protein, 1 mM substrate, 1 mM SAM, 60 mM HEPES pH 8, 16 hours at 37° C.; relative level of N-alkylated product by LC-MS
Method: as §5, §1, §2, §3, §4

GfCNMT = experiment: N-alkylation substrate screen using GfCNMT (LC-MS); assay type: biochemical, Glaucium flavum; design: key: −=no detectable quantities of product N-alkylated compound; Trace, +, ++, +++=increasing relative levels of product N-alkylated compound; Trace, +, ++, +++=increasing relative levels of product N-alkylated compound; Trace, +, ++, +++=increasing relative levels of product N-alkylated compound; Trace, +, ++, +++=increasing relative levels of product N-alkylated compound; settings: 25 μg protein, 1 mM substrate, 1 mM SAM, 60 mM HEPES pH 8, 16 hours at 37° C.; relative level of N-alkylated product by LC-MS
Method: as §5, §1, §2, §3, §4

Row | Compound | N-alkylation of substrate alkaloid compounds, Enzyme EsNMT (EsNMT) | N-alkylation of substrate alkaloid compounds, Enzyme GfTNMT (GfTNMT) | N-alkylation of substrate alkaloid compounds, Enzyme PsRNMT (PsRNMT) | N-alkylation of substrate alkaloid compounds, Enzyme GfCNMT (GfCNMT) | N-alkylated alkaloid product detected after incubation with EsNMT (SEQ. ID NO: 2) (EsNMT)
1 | CC(C)NC[C@H](O)COc1cccc2ccccc12 (racemic) [Propanolol, propanolol, reference compound] | + | +++ | +++ | ++ | 
2 | COc1cc2c(cc1O)C(Cc1ccc(O)cc1)NCC2 (centres unmarked) [Coclaurine, coclaurine] | + | + | ++ | +++ | 
3 | COc1ccc2c3c([nH]c2c1)C(C)=NCC3 [Harmaline, harmaline] | + | − | − | + | 
4 | NCCc1c[nH]c2ccccc12 [Tryptamine, tryptamine] | +++ | Trace | Trace | Trace | 
5 | c1cc2c(c3c1C[C@H]1c4cc5c(cc4CCN1C3)OCO5)OCO2 [Stylopine, stylopine] | + | + | +++ | + | 
6 | NCCc1c[nH]cn1 [Histamine, histamine] | − | − | − | − | No N-alkylated alkaloid product compounds were detected
7 | COc1cc(CCN)cc(OC)c1OC [Mescaline, mescaline] | + | − | − | − | 
8 | COc1cc2c(cc1OC)CNCC2 [THQ2, 6,7-dimethoxy-1,2,3,4-tetrahydroisoquinoline] | +++ | + | + | +++ | 
9 | CC(N)Cc1ccccc1 (centres unmarked) [Amphetamine, amphetamine, reference compound] | + | Trace | − | Trace | 
10 | COc1ccc(C[C@H]2c3cc(O)c(OC)cc3CCN2C)cc1O [S-Reticuline, reticuline] | + | ++ | +++ | + | 
11 | COc1ccc2c(c1OC)C(=O)O[C@@H]2[C@H]1c2c(cc3c(c2OC)OCO3)CCN1C [Noscapine, noscapine, reference compound] | − | +++ | ++ | Trace | No N-alkylated alkaloid product compounds were detected
12 | NCCc1ccccc1 [2-Phenylethaneamine, 2-phenylethan-1-amine] | + | Trace | − | Trace | 
13 | NC(=O)c1cccnc1 [Nicotinamide, nicotinamide] | − | − | − | − | No N-alkylated alkaloid product compounds were detected
14 | NCCc1ccc(O)cc1 [Tyramine, tyramine] | + | − | − | + | 
